Assay results as given in patent US7829723B2, “Polymorphic forms of (S)-1-cyanobutan-2-yl (S)-1-(3-3-(3-methoxy-4-(oxazol-5-yl)phenyl)uriedo)phenyl)ethylcarbamate” (Vertex Pharmaceuticals Incorporated, priority 2005, dated 2010).
In brackets after ≈: the same amount, converted by molar mass.

Experiments:
[1] = Solubility of Compound 1 at elevated temperatures in various solvents; format: physicochemical; settings: organic solvent or mixture
[2] = Solubility of Compound 1 at room temperature in various solvents and solvent mixtures; format: physicochemical

solubility ([1]; solvent Acetone, 40° C.): 61 mg/mL (≈ 128 mM) | solubility ([1]; solvent Acetone, Boiling point (56° C.)): 67 mg/mL (≈ 140 mM) | solubility ([1]; solvent MeOH, 40° C.): 33 mg/mL (≈ 69.1 mM) | solubility ([1]; solvent MeOH, 50° C.): 36 mg/mL (≈ 75.4 mM) | solubility ([1]; solvent MeOH, Boiling point (65° C.)): 92 mg/mL (≈ 193 mM) | solubility ([1]; solvent THF, 40° C.): 75 mg/mL (≈ 157 mM) | solubility ([1]; solvent THF, Boiling point (65° C.)): 115 mg/mL (≈ 241 mM) | solubility ([1]; solvent Toluene, 50° C.): < 2.3 mg/mL | solubility ([1]; solvent t-Butyl methyl ether (MTBE), 45° C.): < 10.4 mg/mL | solubility ([2]; aqueous with cosolvent or surfactant or cyclodextrin, solvent Acetone:H2O 20:80): < 8.9 mg/mL | solubility ([2]; organic solvent or mixture, solvent 2-Butanone (MEK)): 10.5 mg/mL (≈ 22 mM) | solubility ([2]; organic solvent or mixture, solvent Acetone): 11 mg/mL (≈ 23 mM) | solubility ([2]; organic solvent or mixture, solvent Acetonitrile): 1.6 mg/mL (≈ 3.35 mM) | solubility ([2]; organic solvent or mixture, solvent EtOH): 1.6 mg/mL (≈ 3.35 mM) | solubility ([2]; organic solvent or mixture, solvent THF): 35 mg/mL (≈ 73.3 mM)
Compound: CC[C@@H](CC#N)OC(=O)N[C@@H](C)c1cccc(NC(=O)Nc2ccc(-c3cnco3)c(OC)c2)c1 [Compound 1, (S)-1-cyanobutan-2-yl (S)-1-(3-(3-(3-methoxy-4-(oxazol-5-yl)phenyl)ureido)phenyl)ethylcarbamate]
